The NIST ThermoML archive (doi:10.1016/j.fluid.2014.09.014)

Experiment: xn = mol fraction of the nth substance listed
Details: 101 kPa, Liquid, mechanical oscillator

CC(C)OC(C)C [diisopropyl ether] + CC(C)O
mass density [kg/m3]
Details	293.15 K	298.15 K	303.15 K	308.15 K	313.15 K	318.15 K
x1 = 0.0277	784.54	780.15	775.28	770.51	766.2	–
x1 = 0.0507	783.14	778.52	773.7	769.05	764.54	759.23
x1 = 0.051	783.12	–	773.67	769.05	764.52	759.21
x1 = 0.0717	781.73	776.95	772.14	767.56	762.92	757.56
x1 = 0.1528	775.51	770.53	765.48	760.84	756.03	750.75
x1 = 0.1938	772.05	–	761.88	757.06	–	–
x1 = 0.2029	771.28	766.41	761.07	756.2	751.49	746.41
x1 = 0.245	767.66	762.95	757.34	752.2	747.64	742.79
x1 = 0.297	–	758.78	752.77	747.3	742.94	738.39
x1 = 0.3068	762.42	758.01	751.96	746.39	742.11	737.61
x1 = 0.398	755.24	751.23	744.62	738.38	734.56	730.51
x1 = 0.4609	750.87	747.02	740.13	733.51	729.95	726.09
x1 = 0.5434	745.99	742.15	735.09	728.12	724.76	720.95
x1 = 0.6032	743.03	739.05	732	724.92	721.58	717.67
x1 = 0.6371	741.54	737.43	730.43	723.33	719.96	715.94
x1 = 0.701	738.99	–	–	–	–	–
x1 = 0.754	737.02	732.28	725.68	718.81	715.06	710.5
x1 = 0.791	–	730.68	724.25	717.51	713.58	708.82
x1 = 0.8296	734.1	728.95	722.69	716.11	711.97	707.02
x1 = 0.8903	731.31	725.97	719.93	713.61	709.12	703.97
x1 = 0.9113	730.18	724.83	718.84	712.6	707.99	702.81
x1 = 0.9547	727.49	722.2	716.27	710.18	705.35	700.18
x1 = 0.973	726.17	720.98	715.03	708.99	704.08	698.96
x1 = 0.9771	725.86	720.69	714.73	708.7	703.78	698.67
x1 = 1	723.86	718.3	712.68	707.06	701.5	696.98

CC(C)OC(C)C [diisopropyl ether] + CO
mass density [kg/m3]
Details	293.15 K	298.15 K	303.15 K	308.15 K	313.15 K	318.15 K
x2 = 0	723.86	718.3	712.68	707.06	701.5	696.98
x2 = 0.0423	725.34	720.12	–	708.61	702.92	698.39
x2 = 0.0424	725.34	720.13	714.26	708.63	702.94	698.41
x2 = 0.082	727.36	722.06	716.26	710.51	704.95	699.97
x2 = 0.0822	727.37	722.07	716.27	710.52	704.96	699.98
x2 = 0.1171	729.04	723.73	717.96	712.26	706.79	701.61
x2 = 0.1271	729.5	724.19	718.43	712.74	707.29	702.07
x2 = 0.1827	731.99	726.76	720.98	715.35	709.93	704.6
x2 = 0.2162	733.44	728.28	722.47	716.86	711.42	706.1
x2 = 0.251	734.94	729.84	723.99	718.4	712.93	707.66
x2 = 0.3298	738.41	733.39	727.46	721.88	716.3	711.24
x2 = 0.3577	739.69	–	728.71	723.14	717.52	712.55
x2 = 0.445	–	–	733.04	–	–	–
x2 = 0.4525	744.38	739.19	733.18	727.64	721.96	717.21
x2 = 0.522	748.28	–	736.82	731.34	725.66	720.99
x2 = 0.5543	750.25	744.6	738.65	733.22	727.56	722.88
x2 = 0.609	753.85	747.88	742.01	736.67	731.07	726.33
x2 = 0.6529	756.99	750.75	744.97	739.73	734.2	729.37
x2 = 0.7504	764.78	758.11	752.58	747.61	742.24	737.12
x2 = 0.804	769.56	762.86	757.48	752.69	–	–
x2 = 0.807	769.84	763.14	757.78	–	747.67	742.4
x2 = 0.8727	776.23	769.84	764.66	760.14	754.77	749.37
x2 = 0.9253	781.7	775.96	770.89	766.58	761.06	755.7
x2 = 0.9527	784.68	779.45	774.42	770.23	764.57	759.3
x2 = 0.9773	787.42	782.77	777.76	773.67	767.86	762.7
x2 = 0.989	–	784.41	779.41	775.36	769.46	764.38
x2 = 0.9964	–	–	–	776.46	770.49	–
